Results published in US7098334B2 (Industrial Research Limited, priority 2002, dated 2006).
Where a name gives a salt, the structure may show the parent alone. Read-outs that look alike come from different tables or passages of the source.

Tests used:
[1] = target: MTAN (Escherichia coli, UniProt P0AF12); test: Enzyme inhibition assay, MTAN (slow-onset inhibition constants); assay type: biochemical; details: for Ki: MTAN
Experimental: (§1) Ki as shown in Tables 1 and 2 is the initial inhibition constant formed by the enzyme-inhibitor complex, and Ki* is the equilibrium dissociation constant for inhibition that is observed following a period of slow-onset, tight binding inhibition. Ki* is the biologically effective constant.
(§2) Enzyme assays were conducted to assess the effectiveness of selected compounds of the invention as inhibitors of MTAP and MTAN.
(§3) Inhibitors.—Inhibitor concentrations were determined by the UV absorbance spectrum using the published millimolar extinction coefficients for 9-dazadenine of 8.5 at 275 nm at pH 7.0.
(§4) Assays.—The direct spectrophotometric assay for the conversion of MTA into adenine was measured as the decrease in absorbance at 274 nm. At 274 nm, Δε between MTA and adenine is at a maximum and produces a spectral change of 1.6 absorbance units/cm/mM (DeWolf, W. E. Jr., Fullin, F. A., and Schramm, V. L. (1979) J. Biol. Chem. 254, 10868–10875)
(§5) Slow-Onset Inhibition and Inhibition Constants.—The kinetics for slow onset inhibition and the Ki measurement was carried out by adding a known concentration of enzyme (1–5 nM) to a reaction mixture containing a substrate concentration of 200 μM. This concentration corresponds to an OD of 0.7–1.1 at […]. The formation of product was monitored as a decrease in absorbance at 274 nm. Conditions for Ki* determination used high concentrations of substrate. Two controls, one having no inhibitor and the other no enzyme were included in the experiment. The Ki values MTAP for the various compounds were calculated by fitting in the ratio of initial rates in the presence of inhibitor to without any inhibitor versus the inhibitor concentration, for the known Km and substrate concentration into the following expression.
(§6) Where Vo′ is the rate in the presence of inhibitor • Vo rate in the absence of inhibitor • [I] inhibitor concentration • And [S] is the substrate concentration
(§7) And the Ki* was calculated by fitting to the following expression
(§8) Where Vs′ is the steady-state rate following attainment of equilibrium in the presence inhibitor, and Vs is the steady-state rate in the control having no inhibitor. Both these equations are valid for competitive type inhibition.

[2] = target: T1, human MTAP (Homo sapiens, UniProt Q13126); test: Enzyme inhibition assay, MTAP (slow-onset inhibition constants); assay type: biochemical; details: for Ki: MTAP
T1 construct: inferred from pQE32 vector and Ni-NTA purification) (N); made in house; host or cells: E. coli
T1 sequence (Q13126 1-283): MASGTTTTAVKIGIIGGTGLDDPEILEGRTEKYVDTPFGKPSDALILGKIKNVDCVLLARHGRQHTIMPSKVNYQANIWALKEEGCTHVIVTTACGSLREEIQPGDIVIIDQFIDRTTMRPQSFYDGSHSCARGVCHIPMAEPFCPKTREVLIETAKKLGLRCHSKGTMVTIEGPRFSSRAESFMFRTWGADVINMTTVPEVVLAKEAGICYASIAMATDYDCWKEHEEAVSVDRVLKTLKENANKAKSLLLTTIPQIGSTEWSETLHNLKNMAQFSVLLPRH
Experimental: as §1, §2
Enzymes.—The human MTAP protein was cloned into pQE32 expression vector and transformed into E. coli. Induction cultures containing 1 L (25 mg/L) and 50 μg/mL ampicillin were inoculated with 1 mL overnight grown starter-culture and incubated at 37° C. When the cultures reached an OD of ≈0.6 they were induced with 1.5 mM IPTG for 6 to 8 hours. Cells were harvested by centrifugation at 5000 rpm for 30 min, and subsequently resuspended in a buffer (20 mM imidazole, 300 mM NaCl, 0.2 mM phenylmethylsulfonyl fluoride (PMSF), 100 mM Tris, pH 8.0) containing a small amount of lysozyme to weaken the cell membrane. Cells were lysed with a French press. The insoluble material was removed by high-speed centrifugation. The cell extract was further clarified with 35% ammonium sulfate precipitation followed by high-speed centrifugation. The clarified cell extract was then applied to a 5 mL Ni-NTA column that had previously been equilibrated with the binding buffer. Further chromatographic steps were carried out by FPLC. The column was washed with 10 volumes of 50 mM imidazole, 300 mM NaCl, and 100 mM Tris, pH 8.0, and the protein was eluted with a buffer containing a 50–250 mM gradient of imidazole, 300 mM NaCl, 1 M Tris, pH 8.0. The purity of the protein was verified by running polyacrylamide gel followed by Coomassie staining. The protein was subsequently dialyzed in 50 mM NaCl, 2 mM dithiothreitol (DTT) and 50 mM Tris, pH 7.4, and was concentrated to 10 mg/mL. The purified protein was stored at −80° C. in 100 μL to 150 μL aliquots.
as §3, §4
as §5, with “This” for “Slow-Onset Inhibition and Inhibition Constants.—The kinetics for slow onset inhibition and the Ki measurement was carried out by adding a known concentration of enzyme (1–5 nM) to a reaction mixture containing a substrate concentration of 200 μM. This”
as §6, §7, §8

[3] = Ki*, equilibrium dissociation constant after slow-onset, tight binding inhibition
[4] = Ki, initial inhibition constant
[5] = initial inhibition constant, read-out: Ki
[6] = equilibrium dissociation constant after slow-onset, tight binding inhibition, read-out: Ki*

Row | inhibition of MTAP (in words) [2] | Structure (SMILES) | Ki [1, 3] | Ki [1, 4] | Ki [2, 5] | Ki [2, 6] | Ki [1, 6] | Ki [1, 5] | inhibition of MTAN (in words) [1]
1 |  | Nc1ncnc2c([C@@H]3N[C@H](CSc4ccc(F)cc4)[C@H](O)C3O)c[nH]c12 (stereo partly shown) [5′-(p-Fluoro-phenyl-thio)-ImmA] | 0.02 ± 0.004 nM | 0.082 ± 0.007 nM | 3 ± 0.2 nM |  |  |  | 
2 |  | C[C@H]1N[C@@H](c2c[nH]c3c(N)ncnc23)[C@H](O)[C@@H]1O [5′-deoxy-ImmA, (1S)-1-(9-deazaadenin-9-yl)-1,4,5-trideoxy-1,4-imino-D-ribitol hydrochloride] |  | 13 ± 1 nM | 220 ± 14 nM |  |  |  | 
3 |  | COC[C@H]1N[C@@H](c2c[nH]c3c(N)ncnc23)[C@H](O)[C@@H]1O [5′-Methoxy-ImmA, (1S)-1-(9-deazaadenin-9-yl)-1,4-dideoxy-1,4-imino-5-O-methyl-D-ribitol hydrochloride] |  | 10 ± 1 nM | 70 ± 5 nM |  |  |  | 
4 |  | Nc1ncnc2c([C@@H]3N[C@H](CSc4cccc5ccccc45)[C@H](O)C3O)c[nH]c12 (stereo partly shown) [5′-Napthylthio-ImmA] |  | 0.75 ± 0.033 nM | 52 ± 5 nM |  |  |  | 
5 |  | Nc1ncnc2c([C@@H]3N[C@H](CSCCO)[C@H](O)C3O)c[nH]c12 (stereo partly shown) [5′-Hydroxyethylthio-ImmA] |  | 0.407 ± 0.016 nM | 22 ± 2 nM |  |  |  | 
6 |  | Nc1ncnc2c([C@@H]3N[C@H](CSc4ccc(Cl)cc4)[C@H](O)C3O)c[nH]c12 (stereo partly drawn) [5′-(p-Chloro-Phenyl-thio)-ImmA, (1S)-1-(9-Deazaadenin-9-yl)-5-(4-chlorophenyl)thio-1,4-dideoxy-1,4-imino-D-ribitol] | 0.006 nM | 0.006 ± 0.0003 nM | 0.334 ± 0.036 nM | 0.09 ± 0.02 nM |  |  | 
7 |  | Cc1cccc(SC[C@H]2N[C@@H](c3c[nH]c4c(N)ncnc34)C(O)[C@H]2O)c1 (stereo partly shown) [5′-(m-tolylthio)-ImmA] | 0.009 ± 0.001 nM | 0.015 ± 0.0006 nM | 0.602 ± 0.032 nM | 0.146 ± 0.048 nM |  |  | 
8 | no inhibition | Nc1ncnc2c([C@@H]3N[C@H](CO)C(O)C3O)c[nH]c12 (stereo partly shown) [Immucillin A, reference compound] |  |  |  |  |  |  | 
9 |  | CCC[C@H]1N[C@@H](c2c[nH]c3c(N)ncnc23)[C@H](O)[C@@H]1O [5′-deoxy-5′-ethyl-ImmA, (1S)-1-(9-Deazaadenin-9-yl)-1,4,5-trideoxy-5-ethyl-1,4-imino-D-ribitol] |  |  |  |  | 0.038 ± 0.005 nM | 0.121 ± 0.005 nM | 
10 |  | Nc1ncnc2c([C@@H]3N[C@H](CSc4ccccc4)[C@H](O)C3O)c[nH]c12 (stereo partly shown) |  |  | 0.89 ± 0.12 nM | 0.082 ± 0.009 nM | 0.032 ± 0.002 nM | 0.046 ± 0.003 nM | 
11 |  | CSC[C@H]1N[C@@H](c2c[nH]c3c(=O)[nH]cnc23)C(O)C1O (stereo partly shown) [methylthio-ImmH, reference compound] |  |  |  |  |  |  | no inhibition
12 |  | Nc1ncnc2c([C@@H]3N[C@H](CSCCF)[C@H](O)C3O)c[nH]c12 (stereo partly shown) [5′-Fluoroethylthio-ImmA] | 0.03 ± 0.003 nM | 0.103 ± 0.011 nM | 7 ± 0.5 nM | 1.5 ± 0.17 nM |  |  | 
13 |  | Nc1ncnc2c([C@@H]3N[C@H](CSc4cccc(Cl)c4)[C@H](O)C3O)c[nH]c12 (stereo partly drawn) [5′-(m-Chloro-Phenyl-thio)-ImmA, (1S)-1-(9-Deazaadenin-9-yl)-5-(3-chlorophenyl)thio-1,4-dideoxy-1,4-imino-D-ribitol] | 0.02 ± 0.002 nM | 0.044 ± 0.004 nM | 4 ± 0.4 nM |  |  |  | 
14 |  | Nc1ncnc2c([C@@H]3N[C@H](CSCc4ccccc4)[C@H](O)C3O)c[nH]c12 (stereo partly drawn) [5′-Benzylthio-ImmA, (1S)-1-(9-Deazaadenin-9-yl)-5-benzylthio-1,4-dideoxy-1,4-imino-D-ribitol] | 0.012 ± 0.001 nM | 0.038 ± 0.003 nM | 12 ± 1 nM |  |  |  | 
15 |  | CSC[C@H]1N[C@@H](c2n[nH]c3c(N)ncnc23)C(O)[C@H]1O (stereo partly drawn) [5′-methylthio-8-aza-ImmA, (1S)-1-(7-Amino-1H-pyrazolo[4,3-d]pyrimidin-3-yl)-1,4-dideoxy-1,4-imino-5-methylthio-D-ribitol] | 0.026 ± 0.0003 nM | 0.055 ± 0.003 nM | 7 ± 1 nM | 0.76 ± 0.14 nM |  |  | 
16 |  | CCSC[C@H]1N[C@@H](c2c[nH]c3c(N)ncnc23)C(O)[C@H]1O (stereo partly shown) [5′-Ethylthio-ImmA] | 0.027 ± 0.0003 nM | 0.073 ± 0.011 nM | 18 ± 2 nM | 0.26 ± 0.015 nM |  |  | 
17 |  | Cc1ccc(SC[C@H]2N[C@@H](c3c[nH]c4c(N)ncnc34)C(O)[C@H]2O)cc1 (stereo partly shown) [5′-(p-tolylthio)-ImmA] | 0.008 ± 0.001 nM | 0.018 ± 0.001 nM | 1.6 ± 0.2 nM | 0.252 ± 0.023 nM |  |  | 
